Measurements as given in US6780871B2, “Methods and compositions for treating addiction disorders” (Albany Medical College, priority 2001, dated 2004).

Columns and labels:
Format in all cases: in vivo, rat
[1] = system: morphine self-administration; experiment: intravenous morphine self-administration; conditions: 18-methoxycoronaridine 1 mg/kg i.p., dextromethorphan 5 mg/kg s.c.
Experimental: Dextromethorphan hydrobromide (5 mg/kg; Sigma/RBI, St. Louis, Mo.) was dissolved in saline and injected subcutaneously 20 minutes before testing. Mecamylamine hydrochloride (1 mg/kg; Sigma/RBI, St. Louis, Mo.) was dissolved in physiological saline and injected intraperitoneally 30 minutes before testing. All rats received two injections. For rats that received a single drug, half of them also received the appropriate saline/vehicle injection corresponding to each of the other two drugs.
Naive female Long-Evans derived rats (250 g; Charles River, N.Y.) were maintained on a normal 12 h light cycle (lights on at 7:00 a.m., lights off at 7:00 p.m.). For all experiments the “Principles of Laboratory Animal Care” (NIH publication No. 85-23, revised 1985, which is hereby incorporated by reference) were followed.
The intravenous self-administration procedure described in Glick et al., “18-MC Reduces Methamphetamine and Nicotine Self-administration in Rats,” NeuroReport 11:2013-2015 (2000) (“Glick I”), which is hereby incorporated by reference, was employed. Briefly, responses on either of two levers (mounted 15 cm apart on the front wall of each operant test cage) were recorded on an IBM compatible computer with a Med Associates, Inc. interface. The intravenous self-administration system consisted of polyethylene-silicone cannulas constructed according to the design of Weeks, “Long-term Intravenous Infusion,” pp. 155-168 in Myers (ed.), Methods in Psychobiology, Vol. 2, New York: Academic Press (1972) (“Weeks”), which is hereby incorporated by reference; Instech harnesses and swivels; and Harvard Apparatus infusion pumps (#55-2222). Shaping of the bar-press response was initially accomplished by training rats to bar-press for water. Cannulas were then implanted in the external jugular vein according to procedures described in Weeks, which is hereby incorporated by reference. Self-administration testing began with a 16-h nocturnal session followed by daily 1-h sessions, 5 days (Monday-Friday) a week. A lever-press response produced a 10 μl infusion of drug solution (0.01 mg of morphine sulfate) in about 0.2 s or a 50 μl infusion of drug solution (0.025 mg of methamphetamine sulfate) in about 1 s. Since all rats generally weighed 250±20 g, each response delivered approximately 0.04 mg/kg of morphine or 0.1 mg/kg of methamphetamine. Experiments to assess the effects of experimental treatments were begun when baseline self-administration rates stabilized (≦10% variation from one day to the next across 5 days), usually after 2 weeks of testing.
Each data point represents the mean (±S.E.M.) percent of baseline of 6-8 rats. Significant differences between baseline and treatment are indicated by an asterisk (paired t-test, P<0.01-0.001).
Each data point represents the mean (±S.E.M.) percent of baseline of 5-8 rats. Significant differences between baseline and treatment are indicated by an asterisk (paired t-test), P<0.05-0.01).

[2] = system: methamphetamine self-administration; experiment: intravenous methamphetamine self-administration
[3] = system: nicotine self-administration; experiment: nicotine self-administration; conditions: Example 7, FIGS. 11-12: mecamylamine 0.1 mg/kg i.p., 18-methoxycoronaridine 0.5 mg/kg i.p., dextromethorphan 0.5 mg/kg s.c., bupropion 5 mg/kg i.p.; 5-8 rats
[4] = Example 6, FIG. 8: mecamylamine 1 mg/kg i.p., bupropion 5 mg/kg i.p., 5-8 rats
[5] = Example 6, FIG. 9: mecamylamine 1 mg/kg i.p., 18-methoxycoronaridine 5 mg/kg i.p., dextromethorphan 10 mg/kg s.c., bupropion 10 mg/kg i.p., 5-9 rats

Compound: CC(NC(C)(C)C)C(=O)c1cccc(Cl)c1 (stereo not drawn) [bupropion, m-chloro-α-tert-butylaminopropiophenone]
- effect on morphine self-administration (percent of baseline) [1, 4]: none of the drugs administered alone, significantly decreased
- effect on methamphetamine self-administration (percent of baseline) [2, 5]: none of the drugs administered alone, significantly decreased
- effect on nicotine self-administration (percent of baseline) [3]: none of the drugs administered alone, significantly decreased

Compound: COc1ccc2c(c1)[C@]13CCCC[C@@H]1[C@H](C2)N(C)CC3 [dextromethorphan]
- effect on morphine self-administration (percent of baseline) ([1]; Example 5, FIG. 5: mecamylamine 1 mg/kg i.p., 6-8 rats): none of the drugs administered alone, significantly decreased
- effect on morphine self-administration (percent of baseline) [1, 4]: none of the drugs administered alone, significantly decreased
- effect on methamphetamine self-administration (percent of baseline) ([2]; Example 5, FIG. 6: mecamylamine 1 mg/kg i.p., 18-methoxycoronaridine 2 mg/kg i.p., dextromethorphan 5 mg/kg s.c., 6-7 rats): none of the drugs administered alone, significantly decreased
- effect on methamphetamine self-administration (percent of baseline) [2, 5]: none of the drugs administered alone, significantly decreased
- effect on nicotine self-administration (percent of baseline) [3]: none of the drugs administered alone, significantly decreased
